From the supplement of paper PMC5908809

Experiments:
[1] = tested on: normal NK cells expanded with K562-aAPC; test: percent inhibition of viability; higher = more inhibition; conditions: 72 h, IL-2 2.5 ng/mL
Procedure: (§1)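 Drug sensitivity and resistance testing on K562-aAPC-expanded normal NK cells: 5 concentrations (10-fold steps over a 10,000-fold range), 72 h at 37 °C, viability by CellTiter-Glo normalised to DMSO and benzethonium chloride controls; DSS from the fitted curve.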

DERL-7 (IL-2 2.5 ng/mL) [2] = test: as above; conditions: 72 h
IMC-1 (IL-2 20 ng/mL) [3] = test: as above; conditions: 72 h
KAI3 (IL-2 2.5 ng/mL) [4] = test: as above; conditions: 72 h
KHYG-1 (IL-2 2.5 ng/mL) [5] = test: as above; conditions: 72 h
NK-92 (IL-2 2.5 ng/mL) [6] = test: as above; conditions: 72 h
NK-YS (IL-2 2.5 ng/mL) [7] = test: as above; conditions: 72 h
NKL (IL-2 2.5 ng/mL) [8] = test: as above; conditions: 72 h
SNK-6 (IL-2 2.5 ng/mL) [9] = test: as above; conditions: 72 h
YT (IL-2 2.5 ng/mL) [10] = test: as above; conditions: 72 h
[11] = tested on: normal primary NK cells, pool 1 (3 donors) (IL-2 2.5 ng/mL); test: as above; conditions: 72 h
[12] = tested on: normal primary NK cells, pool 1 (3 donors), resting (IL-2 0 ng/mL); test: as above; conditions: 72 h
[13] = tested on: normal primary NK cells, pool 2 (3 donors) (IL-2 2.5 ng/mL); test: as above; conditions: 72 h
[14] = tested on: normal primary NK cells, pool 3 (3 donors) (IL-2 2.5 ng/mL); test: as above; conditions: 72 h
[15] = tested on: normal NK cells expanded with K562-aAPC; test: drug sensitivity score (DSS) (DSS units); higher = more sensitive; extreme values may be limits of the assay; conditions: 72 h; IL-2 2.5 ng/mL
Procedure: as §1

DERL-7 (IL-2 2.5 ng/mL) [16] = test: as above; conditions: 72 h
IMC-1 (IL-2 20 ng/mL) [17] = test: as above; conditions: 72 h
KAI3 (IL-2 2.5 ng/mL) [18] = test: as above; conditions: 72 h
KHYG-1 (IL-2 2.5 ng/mL) [19] = test: as above; conditions: 72 h
NK-92 (IL-2 2.5 ng/mL) [20] = test: as above; conditions: 72 h
NK-YS (IL-2 2.5 ng/mL) [21] = test: as above; conditions: 72 h
NKL (IL-2 2.5 ng/mL) [22] = test: as above; conditions: 72 h
SNK-6 (IL-2 2.5 ng/mL) [23] = test: as above; conditions: 72 h
YT (IL-2 2.5 ng/mL) [24] = test: as above; conditions: 72 h
[25] = tested on: normal primary NK cells, pool 1 (3 donors) (IL-2 2.5 ng/mL); test: as above; conditions: 72 h
[26] = tested on: normal primary NK cells, pool 1 (3 donors), resting (IL-2 0 ng/mL); test: as above; conditions: 72 h
[27] = tested on: normal primary NK cells, pool 2 (3 donors) (IL-2 2.5 ng/mL); test: as above; conditions: 72 h
[28] = tested on: normal primary NK cells, pool 3 (3 donors) (IL-2 2.5 ng/mL); test: as above; conditions: 72 h

O=C(Nc1ccc(OC(F)(F)F)cc1)c1sccc1NCc1ccnc2ccccc12 [OSI-930] (max concentration tested 2500 nM)
percent inhibition of viability [%]
Conditions	0.25 nM	2.5 nM	25 nM	250 nM	2500 nM
DERL-7 (IL-2 2.5 ng/mL) [2]	-3.26	4.29	2.35	12.1	10.2
IMC-1 (IL-2 20 ng/mL) [3]	0.84	-1.87	4.98	6.89	18.2
KAI3 (IL-2 2.5 ng/mL) [4]	3.63	-6.37	-2.54	-7.75	4.42
KHYG-1 (IL-2 2.5 ng/mL) [5]	0.6	1.74	3.75	5.69	7.1
NK-92 (IL-2 2.5 ng/mL) [6]	3.89	-3.38	-8.56	11.8	16.6
NK-YS (IL-2 2.5 ng/mL) [7]	-1.68	-3.28	-0.75	3.05	10.1
NKL (IL-2 2.5 ng/mL) [8]	-6.01	-14.6	-5.82	-10.2	7.79
SNK-6 (IL-2 2.5 ng/mL) [9]	2.35	8.65	27.3	16.9	25.4
YT (IL-2 2.5 ng/mL) [10]	-0.61	-3.29	0.94	1	10.3
[1]	0.01	-3.72	-1.42	0.82	7.54
[11]	-1.64	6.46	-0.65	1.58	5.43
[12]	-4.47	-4.58	-9.07	4.32	12.1
[13]	-8.8	-7.72	0	7.78	8.04
[14]	-8.79	-12.1	-5.29	4.46	8.54

Conditions	drug sensitivity score
DERL-7 (IL-2 2.5 ng/mL) [16]	0.66
IMC-1 (IL-2 20 ng/mL) [17]	0.67
KAI3 (IL-2 2.5 ng/mL) [18]	0
KHYG-1 (IL-2 2.5 ng/mL) [19]	0
NK-92 (IL-2 2.5 ng/mL) [20]	1.27
NK-YS (IL-2 2.5 ng/mL) [21]	0
NKL (IL-2 2.5 ng/mL) [22]	0
SNK-6 (IL-2 2.5 ng/mL) [23]	8.62
YT (IL-2 2.5 ng/mL) [24]	0
[15]	0
[25]	0
[26]	0.24
[27]	0
[28]	0

Nc1ccccc1NC(=O)c1ccc(CNC(=O)OCc2cccnc2)cc1 [Entinostat] (max concentration tested 10000 nM)
percent inhibition of viability [%]
Conditions	1 nM	10 nM	100 nM	1000 nM	10000 nM
DERL-7 (IL-2 2.5 ng/mL) [2]	0.45	2.75	-7.22	24.5	99.7
IMC-1 (IL-2 20 ng/mL) [3]	2.59	0.46	1.95	10.1	99.8
KAI3 (IL-2 2.5 ng/mL) [4]	-0.78	3.8	18.4	66.9	94
KHYG-1 (IL-2 2.5 ng/mL) [5]	-9.03	-10.2	-4.46	50.8	95.8
NK-92 (IL-2 2.5 ng/mL) [6]	-11.3	-2.61	7.67	73.5	96.4
NK-YS (IL-2 2.5 ng/mL) [7]	-7.17	-13.1	-7.95	20.5	95.3
NKL (IL-2 2.5 ng/mL) [8]	-7.74	-3.03	2.66	77.8	94
SNK-6 (IL-2 2.5 ng/mL) [9]	9.17	8.55	15.6	65	95.2
YT (IL-2 2.5 ng/mL) [10]	0.9	-0.08	4.17	7.95	93.3
[1]	-3.4	0.57	-3.46	17.8	99.5
[11]	-1.3	1.71	4.63	34.1	97.6
[12]	-8	-8.09	10.2	61.1	92.3
[13]	-6.42	-3.08	-10.5	24.5	95.8
[14]	-13.6	-2.26	-9.76	3.4	97.7

Conditions	drug sensitivity score
DERL-7 (IL-2 2.5 ng/mL) [16]	9.28
IMC-1 (IL-2 20 ng/mL) [17]	7.18
KAI3 (IL-2 2.5 ng/mL) [18]	14.8
KHYG-1 (IL-2 2.5 ng/mL) [19]	11.5
NK-92 (IL-2 2.5 ng/mL) [20]	14.8
NK-YS (IL-2 2.5 ng/mL) [21]	8.53
NKL (IL-2 2.5 ng/mL) [22]	14.6
SNK-6 (IL-2 2.5 ng/mL) [23]	14.4
YT (IL-2 2.5 ng/mL) [24]	6.43
[15]	8.42
[25]	9.83
[26]	13
[27]	9.03
[28]	5.88

O=C(c1ccc(C(=O)N2CCC(N3CCCC3)CC2)c(Nc2ccccc2)c1)N1CCC(N2CCCC2)CC1 [UNC1215] (max concentration tested 30000 nM)
percent inhibition of viability [%]
Conditions	3 nM	30 nM	300 nM	3000 nM	30000 nM
DERL-7 (IL-2 2.5 ng/mL) [2]	-1.53	0.01	3.61	7.89	3.14
IMC-1 (IL-2 20 ng/mL) [3]	-3.72	-5.44	3.3	4.34	14.3
KAI3 (IL-2 2.5 ng/mL) [4]	1.7	4.58	5.63	3.2	16.4
KHYG-1 (IL-2 2.5 ng/mL) [5]	-1.52	-1.25	-0.64	3.44	11.4
NK-92 (IL-2 2.5 ng/mL) [6]	-15.1	-6.53	5.43	7.05	13.6
NK-YS (IL-2 2.5 ng/mL) [7]	-2.93	-6.82	1.29	4.26	12.9
NKL (IL-2 2.5 ng/mL) [8]	-7.8	-11.1	-0.61	-5.87	10.9
SNK-6 (IL-2 2.5 ng/mL) [9]	-4.87	-19.4	0.88	-4.07	-10.5
YT (IL-2 2.5 ng/mL) [10]	-2.24	-2.54	-0.78	1.55	4.57
[1]	3.82	0.21	4.98	5.27	6.03
[11]	-4.87	7.23	-8	1.14	-2.52
[12]	-4.97	4.4	-12.3	-0.15	-14.2
[13]	-8.79	-4.27	-3.06	7.44	11.8
[14]	-6.54	-6.05	-0.93	8.8	12.9

Conditions	drug sensitivity score
DERL-7 (IL-2 2.5 ng/mL) [16]	0
IMC-1 (IL-2 20 ng/mL) [17]	0.31
KAI3 (IL-2 2.5 ng/mL) [18]	0.59
KHYG-1 (IL-2 2.5 ng/mL) [19]	0.12
NK-92 (IL-2 2.5 ng/mL) [20]	0.29
NK-YS (IL-2 2.5 ng/mL) [21]	0.25
NKL (IL-2 2.5 ng/mL) [22]	0
SNK-6 (IL-2 2.5 ng/mL) [23]	0
YT (IL-2 2.5 ng/mL) [24]	0
[15]	0
[25]	0
[26]	0
[27]	0.28
[28]	0.52
